From ChEMBL document CHEMBL1133635, “Caspases as targets for anti-inflammatory and anti-apoptotic drug discovery” (J Med Chem, 2000)
pIC50, pKi: −log10 of the molar value. Where a SMILES comes first, the peptide text is derived from it. [ ]: non-standard residue; d: D form. ξ: configuration not given here. ξE = NC(CCC(=O)O)C(=O)O; βAla = NCCC(=O)O

biological target: T1, Caspase-1 (Homo sapiens, UniProt P29466); assay: Compound was evaluated for the inhibitory activity against caspase-1; details: not given
T1 sequence (P29466 whole entry): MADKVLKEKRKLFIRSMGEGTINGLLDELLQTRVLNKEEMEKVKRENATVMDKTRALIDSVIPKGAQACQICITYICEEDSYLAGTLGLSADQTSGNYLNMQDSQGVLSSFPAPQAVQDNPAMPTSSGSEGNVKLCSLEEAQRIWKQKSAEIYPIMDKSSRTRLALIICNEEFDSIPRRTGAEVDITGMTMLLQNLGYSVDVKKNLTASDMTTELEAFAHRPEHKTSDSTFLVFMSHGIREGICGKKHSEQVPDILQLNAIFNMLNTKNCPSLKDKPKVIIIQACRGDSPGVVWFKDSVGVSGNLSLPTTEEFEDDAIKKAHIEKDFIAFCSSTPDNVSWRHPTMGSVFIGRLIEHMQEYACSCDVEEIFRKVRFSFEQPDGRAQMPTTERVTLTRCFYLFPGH

pKi | pIC50 | SMILES
4.89 | – | CC(C)[C@H](NC(=O)OCc1ccccc1)C(=O)N[C@@H](C)C(=O)N[C@@H](CC(=O)O)C(=O)c1ncco1
– | 7.73 | CC(=O)N[C@@H](Cc1ccc(O)cc1)C(=O)N[C@H](C(=O)N[C@@H](C)C(=O)NC(CC(=O)O)C(=O)CCCCCc1ccccc1)C(C)C (stereo partly drawn)
5.00 | – | CC(C)[C@H](NC(=O)OCc1ccccc1)C(=O)N[C@@H](C)C(=O)N[C@@H](CC(=O)O)C(=O)c1nccs1
5.20 | – | CC(C)[C@H](NC(=O)OCc1ccccc1)C(=O)N[C@@H](C)C(=O)N[C@@H](CC(=O)O)C(=O)c1nc(-c2ccccc2)c[nH]1
– | 8.70 | CC(C)[C@H](NC(=O)c1ccccc1)C(=O)N(CC(=O)NC(CC(=O)O)C(=O)c1nc2ccccc2o1)C1Cc2ccccc2C1 (stereo partly drawn)
– | 7.34 | CCCCC(C(=O)N[C@@H](CC(=O)O)C(=O)COc1ccccc1)n1cncc(NC(=O)c2cccc3ccccc23)c1=O (stereo partly drawn)
– | 8.72 | CC(C)[C@H](NC(=O)OCc1ccccc1)C(=O)N[C@@H](C)C(=O)NC(CC(=O)O)C(=O)COC(=O)CCc1ccccc1 (stereo partly drawn)
– | 8.00 | O=C(O)C[C@H](NC(=O)C(c1ccccc1)n1cccc(NC(=O)c2cccc3ccccc23)c1=O)C(=O)COc1ccccc1 (stereo partly drawn)
– | 7.89 | CC(C)[C@H](NC/C=C/c1ccccc1)C(=O)N1CC(O)C[C@H]1C(=O)NC(CC(=O)O)C(=O)COc1ccccc1 (stereo partly drawn)
– | 9.40 | CC(C)[C@H](CC(=O)NCCc1cn(C)c2ccccc12)C(=O)NC(CC(=O)O)C(=O)CNS(=O)(=O)CC12CCC(CC1=O)C2(C)C (stereo partly drawn)
5.06 | – | CC(C)[C@H](NC(=O)OCc1ccccc1)C(=O)N[C@@H](C)C(=O)N[C@@H](CC(=O)O)C(=O)c1ncc[nH]1
– | 9.43 | CC[C@@H](C(=O)NC(CC(=O)O)C(=O)CNCCc1ccccc1)n1cccc(NC(=O)c2ccc3ccccc3c2)c1=O (stereo partly drawn)
6.62 | – | CC(C)[C@H](NC(=O)OCc1ccccc1)C(=O)N[C@@H](C)C(=O)N[C@@H](CC(=O)O)C(=O)c1ncc(-c2ccccc2)o1
– | 8.77 | CC(C)[C@H](NC(=O)OCc1ccccc1)C(=O)N[C@@H](C)C(=O)NC(CC(=O)O)C(=O)COc1cc2ccccc2cc1C(N)=O (stereo partly drawn)

biological target: T1, Caspase-1; assay: Dissociation constant for inhibition of caspase-1; details: not given

pKi | SMILES
7.77 | CC(C)[C@H](NC(=O)OCc1ccccc1)C(=O)N[C@@H](C)C(=O)NC(CC(=O)O)C(=O)COc1ccc2ccc(=O)oc2c1 (stereo partly drawn)
8.70 | CC(=O)N[C@@H](Cc1ccc(O)cc1)C(=O)N[C@H](C(=O)N1CC(O)C[C@H]1C(=O)NC(C=O)CC(=O)O)C(C)C (stereo partly drawn)
3.70 | CC(=O)N[C@@H](Cc1ccc(O)cc1)C(=O)N[C@H](C(=O)N[C@@H](C)C(=O)NCCC(=O)O)C(C)C (Ac-YVA[βAla]-OH)
8.00 | O=C[C@H](CC(=O)O)NC(=O)[C@@H]1Cc2cccc3c2N1C(=O)[C@@H](NC(=O)c1cccc2ccccc12)CC3
8.05 | CC(=O)N[C@@H](Cc1ccc(O)cc1)C(=O)N[C@H](C(=O)N[C@@H](C)C(=O)NC(C=O)CCC(=O)O)C(C)C (stereo partly drawn) (Ac-YVA[ξE]-aldehyde)
7.21 | O=C[C@H](CC(=O)O)NS(=O)(=O)c1ccccc1OCCc1cccc2ccccc12
9.12 | CC(=O)N[C@@H](Cc1ccc(O)cc1)C(=O)N[C@H](C(=O)N[C@@H](C)C(=O)NC(C=O)CC(=O)O)C(C)C (stereo partly drawn)
8.05 | CC(=O)N[C@@H](Cc1ccc(O)cc1)C(=O)N[C@H](C(=O)N[C@@H](C)C(=O)N[C@@H](CC(=O)O)C(=O)C(=O)NCCc1ccccc1)C(C)C
7.42 | CC(C)[C@H](NC(=O)c1ccc2ccccc2c1)C(=O)N1CCC[C@H]1C(=O)NC(C=O)CC(=O)NS(C)(=O)=O (stereo partly drawn)
7.44 | O=C[C@H](CC(=O)O)NC(=O)C1CCC2CCC(NC(=O)OCc3ccccc3)C(=O)N21 (stereo partly drawn)

biological target: T2, Caspase-3 (Homo sapiens, UniProt P42574); assay: Evaluated for the dissociation constant for the inhibition of caspase-3; details: read-out: Ki app
T2 sequence (P42574 whole entry): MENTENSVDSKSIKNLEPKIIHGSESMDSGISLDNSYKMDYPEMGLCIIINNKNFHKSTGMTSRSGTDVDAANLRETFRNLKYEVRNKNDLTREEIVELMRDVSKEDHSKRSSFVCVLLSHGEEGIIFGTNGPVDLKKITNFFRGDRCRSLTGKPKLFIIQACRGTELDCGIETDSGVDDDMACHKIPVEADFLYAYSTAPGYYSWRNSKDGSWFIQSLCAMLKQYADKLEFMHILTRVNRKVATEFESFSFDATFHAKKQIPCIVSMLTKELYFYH

pKi | SMILES
7.82 | CN1C(=O)C(=O)c2cc(S(=O)(=O)N3CCC[C@H]3COc3ccccc3)ccc21

biological target: T3, Caspase-1 (Homo sapiens) (UniProt P29466); details: not given
T3 sequence (whole entry): T1 sequence (P29466 whole entry)

k on [M⁻¹ s⁻¹] | SMILES
380000 | CC(=O)N[C@@H](Cc1ccc(O)cc1)C(=O)N[C@H](C(=O)N[C@@H](C)C(=O)NC(C=O)CC(=O)O)C(C)C (stereo partly drawn)

biological target: T3, Caspase-1 (Homo sapiens); details: not given; remark: another data set of the same source

k on [M⁻¹ s⁻¹] | SMILES
430000 | CC(C)[C@H](NC(=O)OCc1ccccc1)C(=O)N[C@@H](C)C(=O)NC(CC(=O)O)C(=O)COc1cc2ccccc2cc1C(N)=O (stereo partly drawn)

biological target: T4, Caspase-7 (Homo sapiens, UniProt P55210); assay: Evaluated for kinetic dissociation constant […] for the inhibition of caspase-7; details: read-out: Ki app
T4 sequence (P55210 whole entry): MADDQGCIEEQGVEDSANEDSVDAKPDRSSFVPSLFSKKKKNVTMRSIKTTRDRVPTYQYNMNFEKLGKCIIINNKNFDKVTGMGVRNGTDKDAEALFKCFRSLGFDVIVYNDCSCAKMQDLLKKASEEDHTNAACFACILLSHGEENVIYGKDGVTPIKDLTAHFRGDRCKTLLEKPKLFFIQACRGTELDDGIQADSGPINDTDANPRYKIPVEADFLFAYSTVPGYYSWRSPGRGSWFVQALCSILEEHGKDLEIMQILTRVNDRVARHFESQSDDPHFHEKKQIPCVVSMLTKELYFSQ

pKi | SMILES
7.33 | CN1C(=O)C(=O)c2cc(S(=O)(=O)N3CCC[C@H]3COc3ccccc3)ccc21
